From patent publication US9387204B2, “Fused bicyclic imidazoles” (BAYER INTELLECTUAL PROPERTY GmbH, priority 2007, dated 2016)
Read-outs that look alike come from different tables or passages of the source.

What was measured:
phospho-Akt (Ser473) = assay: Cellular PI3K/Akt pathway assay (phospho-Akt ELISA); type: cell-based; settings: MCF7 cells, β-Heregulin stimulated, 48 h, phospho-Akt1 (Ser473) ELISA
Method: In order to study the cellular activity of the compounds according to the present invention, an Enzyme Linked Immunosorbent Assay (ELISA)-based assay has been used specific phospho-AKT. The assay is based on a Sandwich ELISA kit (PathScan™ Phospho-Akt1 (Ser473); Cell Signaling, USA; #7160).
The ELISA Kit detects endogenous levels of phosphorylated Akt protein. A phospho-Akt (Ser473) antibody (Cell Signaling, USA; #9271) has been coated onto the microwells. After incubation with cell lysates, the coated antibody captures the phosphorylated Akt protein. Following extensive washing, Akt1 monoclonal antibody (Cell Signaling, USA; #2967) is added to detect the captured phospho-Akt1 protein. HRP-linked anti-mouse antibody (HRP: horseradish peroxidase; Cell Signaling, USA; #7076) is then used to recognize the bound detection antibody. HRP substrate (=3,3′,5,5′-tetramethylbenzidine (TMB); Cell Signaling, USA; #7160) is added to develop colour. The magnitude of optical density for this developed color is proportional to the quantity of phosphorylated Akt protein. MCF7 cells (ATCC HTB-22) are seeded into 96 well fate bottom plates at a density of 10000 cells/well. 24 hours after seeding, the cells are serum starved using low-serum medium (IMEM media including 0.1% charcoal treated FCS (FCS: fetal calf serum)). […] To stimulate Akt phosphorylation, β-Heregulin (20 ng/ml β-HRG) is added in parallel to the compounds. Wells containing unstimulated control cells (no β-Heregulin stimulation) are incubated with or without the diluted compound. Wells containing untreated control cells (no compound) are filled with medium containing 0.5% v:v DMSO and are or are not stimulated with β-Heregulin.
Cells are harvested and lysed with brief sonification in 1× cell lysis buffer (20 mM Tris (pH7.5), 150 mM NaCl, 1 mM ethylene diaminetetraacetate (EDTA), 1 mM ethylene glycolbis(2-aminoethyl)-N,N,N′,N′-tetraacetic acid (EGTA), 1 vol % Triton X-100, 2.5 mM sodium pyrophosphate, 1 mM β-glycerolphosphate, 1 mM Na3VO4, 1 μg/ml leupeptin). The lysate is centrifuged for 10 min. at 4° C. and the supernatant is transferred to a new tube. 100 μl of sample diluent (0.1 vol % Tween-20, 0.1 vol % sodium azide in phosphate buffered saline (PBS)) are added to a microcentrifuge tube and 100 μl of cell lysate are transferred into the tube and vortexed. 100 μl of each diluted cell lysate are added to the appropriate ELISA well, and incubated overnight at 4° C. The plates are washed 4 times with 1× wash buffer (1 vol % tween-20, 0.33 vol % thymol, in PBS). Next 100 μl of detection antibody (Akt1 (2H10) monoclonal detection antibody; Cell Signaling, USA; #2967) are added to each well and incubation continued for 1 h at 37° C. The washing procedure is repeated between each step. 100 μl of secondary antibody (anti-mouse IgG HRP-linked antibody; Cell Signaling, USA; #7076) are added to each well and incubated for 30 min. at 37° C. Than, 100 μl of TMB substrate (0.05% 3,3′,5,5′ tetramethylbenzidine, 0.1% hydrogen peroxide, complex polypeptides in a buffered solution; Cell Signaling, USA; #7160) are added to each well and incubated for 30 min. at 25° C. Finally 100 μl of STOP solution (0.05 vol % α and β unsaturated carbonyl compound) are added to each well and the plate are shaked gently. The absorbance is measured at ? 450 nm (Wallac Victor2; Perkin Elmer, USA) within 30 min. after adding the STOP solution. The analysis of the data is performed using a statistical program (Excel; Microsoft, USA). Preferred compounds show an inhibitory activity towards Akt phosphorylation below 10 μM.

A549 cells [1] = tested on: A549 cells
OvCAR3 cells = assay: Cellular proliferation/cytotoxicity assay (Alamar Blue), OvCAR3 cells; type: cell-based; settings: Homo sapiens, OVCAR-3, 72 h, Alamar Blue (Resazurin), read-out: Anti-proliferative/Cytotoxic activity (OvCAR3 cells)
Source text: Viabilities are expressed as % values.

A549 cells [2] = assay: Cellular proliferation/cytotoxicity assay (Alamar Blue), A549 cells; settings: Homo sapiens, A549, 72 h, read-out: Anti-proliferative/Cytotoxic activity (A549 cells)

IC50 (phospho-Akt (Ser473))	IC50 (A549 cells [1])	Compound	IC50 (OvCAR3 cells)	IC50 (A549 cells [2])
< 1 µM	< 10 µM	Cc1ccc(-c2nnc(C3CCN(Cc4ccc(-c5nc6c(C#N)cccn6c5-c5ccccc5)cc4)CC3)[nH]2)nc1 [Example 71, ′2-[4-({4-[5-(5-methylpyridin-2-yl)-4H-1,2,4-triazol-3-yl]piperidin-1-yl}methyl)phenyl]-3-phenylimidazo[1,2-a]pyridine-8-carbonitrile]	–	–
< 1 µM	< 10 µM	N#Cc1cccn2c(-c3ccccc3)c(-c3ccc(CN4CCC(c5nnc(-c6ccc[nH]6)[nH]5)CC4)cc3)nc12 [Example 105, ′3-phenyl-2-[4-({4-[5-(1H-pyrrol-2-yl)-4H-1,2,4-triazol-3-yl]piperidin-1-yl}methyl)phenyl]imidazo[1,2-a]pyridine-8-carbonitrile]	–	–
< 1 µM	< 10 µM	COc1ccn2c(-c3ccccc3)c(-c3ccc(CN4CCC(c5nnc(-c6cccc(C)n6)[nH]5)CC4)cc3)nc2c1 [Example 68, ′7-methoxy-2-[4-({4-[5-(6-methylpyridin-2-yl)-4H-1,2,4-triazol-3-yl]piperidin-1-yl}methyl)phenyl]-3-phenylimidazo[1,2-a]pyridine]	–	–
< 1 µM	> 10 µM	N#Cc1cccn2c(-c3ccccc3)c(-c3ccc(CN4CCC(c5nnc(-c6cccs6)[nH]5)CC4)cc3)nc12 [Example 98, ′3-phenyl-2-[4-({4-[5-(2-thienyl)-4H-1,2,4-triazol-3-yl]piperidin-1-yl}methyl)phenyl]imidazo[1,2-a]pyridine-8-carbonitrile]	–	–

More lines, now with the values behind:

Compound	IC50 (phospho-Akt (Ser473))	IC50 (A549 cells [1])	IC50 (OvCAR3 cells)	IC50 (A549 cells [2])
NC(=O)c1cccn2c(-c3ccccc3)c(-c3ccc(CN4CCC(c5n[nH]c(-c6ccccn6)n5)CC4)cc3)nc12 [Example 40, 3-phenyl-2-(4-{[4-(5-pyridin-2-yl-1,2,4-triazol-3-yl)piperidin-1-yl]methyl}phenyl)imidazo[1,2-a]pyridine-8-carboxamide]	–	–	< 10 µM	> 10 µM
Clc1ccc2nc(-c3ccc(CN4CCC(c5n[nH]c(-c6ccccn6)n5)CC4)cc3)c(-c3ccccc3)n2n1 [Example 31, 6-chloro-3-phenyl-2-(4-{[4-(5-pyridin-2-yl-1,2,4-triazol-3-yl)piperidin-1-yl]methyl}phenyl)imidazo[1,2-b]pyridazine]	–	–	< 10 µM	> 10 µM
N#Cc1cccn2c(-c3ccccc3)c(-c3ccc(CN4CCC(c5nnc(-c6ccncc6)[nH]5)CC4)cc3)nc12 [Example 59, ′3-phenyl-2-(4-{[4-(5-pyridin-4-yl-4H-1,2,4-triazol-3-yl)piperidin-1-yl]methyl}phenyl)imidazo[1,2-a]pyridine-8-carbonitrile]	< 1 µM	< 10 µM	–	–
